Data set [1] in a line: discoloration / decomposition of quat on compounding into polyethylene melt. The class given is physicochemical. More on the design: key: ++: heavy discoloration; +: discoloration; 0: weak discoloration; −: hardly any discoloration. As to the method: Experiments were carried out in which the additives shown in Table 2 were processed into a polyethylene melt in a concentration of 2.5%, 5% and 10% into polyethylene RT Dowlex 2388. The compounding conditions included 12 minutes of mixing at 210° C. Partial decomposition of the quat was observed during this step.
Part of the time, a strong violet coloration and a (“fishy”) smell of amines were observed, in particular with additives containing multiple methyl groups and at high concentrations. The probable decomposition mechanism is a Hofmann decomposition.

Data set [2] in a line: solubility of the oil in solvents. Type of data set: physicochemical. As to the method:
A 250 mL flask was filled with 37.92 g (52.5 mmol) of PEG (400) ditosylate. Approximately 100 mL of acetone was added, followed by 16.5 g (approximately 21.6 mL or 104.9 mmol) of dimethyloctylamine. […] The oil was soluble in acetone, chloroform and water, but insoluble in ethyl acetate.

[3] abbreviates: 2.5% additive in polyethylene RT Dowlex 2388, 12 minutes of mixing at 210° C.
Setting [4] is: 5% additive in polyethylene RT Dowlex 2388, 12 minutes of mixing at 210° C.
Setting [5] is: 10% additive in polyethylene RT Dowlex 2388, 12 minutes of mixing at 210° C.

`CCCCCCCCCCCCCCCCCC[N+](C)(C)Cc1ccccc1` [additive A]: the discoloration result in data set [1] (setting [3]), in data set [1] (setting [4]) and in data set [1] (setting [5]) was “+” throughout.
For `CCCCCCCCCCCCCCCCCC[N+](C)(C)C` [additive B], the discoloration in data set [1] (setting [3]) is recorded as 0; in data set [1] (setting [4]) it was “+”; in data set [1] (setting [5]), “++”.
On the same counts, the results for `CCCCCCCCCCCCCCCCCC[N+](C)(C)CCCCCCCCCCCCCCCCCC` [additive C] are 0, 0 and “+”.
On the same counts, the results for `Br.CCCCCCCCCCCCCCCCCCN(C)CCCCCCCCCCCCCCCCCC` [additive D] are “−”, “−” and 0.
The corresponding values for `Br.CCCCCCCCCCCCCCCCCCN(CCCCCCCCCCCCCCCCCC)CCCCCCCCCCCCCCCCCC` [additive E] are “−”, “−” and “−”.
With “α,ω-bis(dimethyloctylammonium)PEG(400) ditosylate”, the solubility result in data set [2] (acetone) is given as “soluble”; in data set [2] (chloroform) it was “soluble”; in data set [2] (ethyl acetate) it was “insoluble”; in data set [2] (water), “soluble”.
